Data set [1] deals with Plasmodium berghei KBG 173. In words: Antimalarial blood schizonticidal test in mice. The format is in vivo, Plasmodium berghei (infected ICR/HA Swiss mice). On the set-up: ΔMST (increase in mean survival time): unit: days. The conditions noted are these: s.c.; for ED100 / minimal effective dose: Plasmodium berghei, sc, 1440 h, single dose; for ED100 / minimal effective dose / Cure/Treat at Min. Curing Dose: 60-day survivors; for ED100: read-out: Lowest Dose Curing All Mice; for minimal effective dose: read-out: Min. Curing Dose; for Cure/Treat at Min. Curing Dose: at the Min. Curing Dose. The text has this:
(§1) In addition, the invention provides compounds which have antimalarial activity in vivo as evidenced by a standard blood schizonticidal test in mice infected with Plasmodium berghei KBG 173.
(§2) Utilizing young ICR/HA Swiss mice and a standard inoculum of Plasmodium berghei KBG 173, it is possible to produce a uniform disease fatal to 100% of untreated animals within 6 to 8 days with a mean survival time of 6.2 days. Test animals weigh from 18 to 22 grams but weight variations in any given experimental or control group are confined to 2-3 grams. All animals in any given test are approximately of the same age. Animals on test are housed in metal-topped plastic cages, given a standard laboratory diet and water ad libitum.
(§3) Test animals receive an intraperitoneal injection of 0.5 ml. of 1:100 dilution of heparinized heart's blood with a minimum of 90% parasitized cells (4 × 10^7 cells), drawn from donor mice infected one week earlier with Plasmodium berghei. The donor strain is maintained by weekly passages in separate groups of mice inoculated with a 0.5 ml. of 1:500 dilution of heparinized heart's blood.
(§4) Test compounds are administered after dissolution or suspension in peanut oil. A single dose is given subcutaneously 72 hours after the mice are infected with Plasmodium berghei. At this time a 10-15 percent parasitemia has developed; the disease is well established but has not produced sufficient debility to alter the response of the host to toxic effects of the drug on test. Since treatment is withheld for three days to permit the infection to become well established and death occurs in untreated controls within 6-8 days, it is felt that this system presents a candidate compound with the maximum challenge. In order to check factors such as changes in the infectivity of Plasmodium berghei or in the susceptibility of the host or to detect technical errors, a group of infected animals treated with pyrimethamine at dose levels producing definite increases in survival time is included in a positive control in every experiment.
(§5) In each experiment test compounds are administered in graded dosages. […] However, if an active drug is toxic for the host, its toxicity may become a limiting factor; continued increases in dose levels also increase the toxic effects and may result in the diminution of survival times. Deaths prior to the sixth day, when untreated controls begin to die, are regarded as nonparasitic and become the basis for toxicity evaluations. […] In calculating mean survival time, toxic deaths and 60-day survivors are not included.
(§6) Compounds are considered active which produce a cure in at least one test animal or which produce significant increases in mean survival times of the treated animals as compared with the mean survival times of untreated controls, provided that no drug related deaths (toxicity) are noted at the active dose.

Data set [2] can be described thus: Antimalarial blood schizonticidal test in mice. On the set-up: ΔMST (increase in mean survival time): unit: days. Format: in vivo, Plasmodium berghei (infected ICR/HA Swiss mice). The conditions noted are these: mouse, in vivo, sc, single dose, read-out: Highest Non-Lethal Dose.
Source text: as §1, §2, §3, §4, §5, §6

The next data set has as its system S. aureus Smith. Nature of the data set: In vitro antibacterial activity (MIC), S. aureus Smith. Particulars: Staphylococcus aureus, 18 h.
For the next data set, the system named is N. catarrhalis 8193. In words: In vitro antibacterial activity (MIC), N. catarrhalis 8193. Particulars: 18 h.
Another data set relates to P. vulgaris 6896. In words: In vitro antibacterial activity (MIC), P. vulgaris 6896. The conditions noted are these: Proteus vulgaris, 6896, 18 h.
Another data set has as its system S. aureus 53-180. Nature of the data set: In vitro antibacterial activity (MIC), S. aureus 53-180. The conditions noted are these: Staphylococcus aureus, 53180, 18 h.
For another data set, the system named is S. paratyphi 11737. Nature of the data set: In vitro antibacterial activity (MIC), S. paratyphi 11737. The format is cell-based. The conditions noted are these: Salmonella enterica, 18 h.
The test system of a further data set is K. pneumoniae 10031. In words: In vitro antibacterial activity (MIC), K. pneumoniae 10031. The conditions noted are these: Klebsiella pneumoniae, 10031, 18 h.
In another data set the test system is E. coli 9637. Nature of the data set: In vitro antibacterial activity (MIC), E. coli 9637. The conditions noted are these: Escherichia coli, 9637, 18 h.
Where [3] appears, read: this is the highest dose tested.
Setting [4] is: infected mice, highest dose with no deaths for any reason.

The structures appear in SMILES notation. ≈ marks a conversion by molar mass, not a printed value. Like-named read-outs stand apart in the source and are kept apart here.

This is an account of results in patent publication US4118561A, “7-(Substituted)-7H-pyrrolo[3,2-f]quinazoline-1,3-diamines” (priority 1977, dated 1978).

The MIC is the least concentration at which growth counts as inhibited. Regarding `CCCCCCCn1ccc2c3c(N)nc(N)nc3ccc21` [Example 53], the ED100 in [1] amounted to 640 mg/kg. The minimal effective dose in [1] came to 320 mg/kg. The “Cure/Treat at Min. Curing Dose” value in [1] is listed as 2/5. The “ΔMST (increase in mean survival time)” value in data set [1] (dose 160 mg. per kg.) is 9.5. Further, the MTD in data set [2] (setting [3]) stood at 640 mg/kg. The minimum inhibitory concentration (MIC) with S. aureus Smith is 31.3 µg/mL (≈ 105 µM); in the data set with N. catarrhalis 8193, 0.488 µg/mL (≈ 1.64 µM); with P. vulgaris 6896 it was 250 µg/mL (≈ 841 µM); against S. aureus 53-180, 15.6 µg/mL (≈ 52.5 µM); in the data set on S. paratyphi 11737 it was 62.5 µg/mL (≈ 210 µM); in the data set with K. pneumoniae 10031, 3.9 µg/mL (≈ 13.1 µM). In the data set with E. coli 9637, the lowest concentration to inhibit growth (MIC) was 31.3 µg/mL (≈ 105 µM).
Turning to `Nc1nc(N)c2c(ccc3c2ccn3CCCc2ccccc2)n1` [Example 56], the ED100 in data set [1] is 320 mg/kg. Besides, in data set [1], the minimal effective dose turned out to be 160 mg/kg. Further, in data set [1], the “Cure/Treat at Min. Curing Dose” value is given as 3/5. In addition, the “ΔMST (increase in mean survival time)” value in [1] (dose 80 mg. per kg.) is 10.7. Also, the MTD in data set [2] (setting [3]) was 640 mg/kg. Besides, the MIC with S. aureus Smith, with N. catarrhalis 8193, in the data set with P. vulgaris 6896, against S. aureus 53-180, with S. paratyphi 11737 and with K. pneumoniae 10031 was 250 µg/mL (≈ 788 µM) in each case. Moreover, the MIC against E. coli 9637 turned out to be 250 µg/mL (≈ 788 µM).
As for `CC(=O)c1ccc(Cn2ccc3c4c(N)nc(N)nc4ccc32)cc1` [Example 61, 7-[(4-Acetylphenyl)methyl]-7H-pyrrolo[3,2-f]-quinazoline-1,3-diamine], the ED100 in data set [1] is 20 mg/kg. Further, the minimal effective dose in [1] was determined as 2.5 mg/kg. In data set [1], the “Cure/Treat at Min. Curing Dose” value is recorded as 4/5. In addition, the “ΔMST (increase in mean survival time)” value in [1] (dose 5 mg. per kg.) worked out at 12.0. Further, in data set [2] (setting [4]), the MTD stood at 40 mg/kg. For the same molecule, the minimal inhibitory concentration (MIC) in the data set on S. aureus Smith was 0.244 µg/mL (≈ 0.736 µM); against N. catarrhalis 8193, 0.0076 µg/mL (≈ 0.0229 µM); against P. vulgaris 6896, 1.95 µg/mL (≈ 5.88 µM); in the data set with S. aureus 53-180, 0.122 µg/mL (≈ 0.368 µM); against S. paratyphi 11737, 0.976 µg/mL (≈ 2.95 µM); in the data set with K. pneumoniae 10031 it was 0.061 µg/mL (≈ 0.184 µM). In the data set on E. coli 9637, it took 0.488 µg/mL (≈ 1.47 µM) to inhibit growth (MIC).
As to `Nc1nc(N)c2c(ccc3c2ccn3Cc2ccc(OC(F)(F)F)cc2)n1` [Example 64, 7-[(4-Trifluoromethoxyphenyl)methyl]-7H-pyrrolo[3,2-f]quinazoline-1,3-diamine], in data set [1], the ED100 is 10 mg/kg. For the same molecule, in data set [1], the minimal effective dose was 2.5 mg/kg. The “Cure/Treat at Min. Curing Dose” value in data set [1] is recorded as 2/5. In data set [1] (dose 1.25 mg. per kg.), the “ΔMST (increase in mean survival time)” value was 9.6. For the same molecule, in data set [2] (setting [4]), the MTD came to 10 mg/kg. The MIC was determined as 0.976 µg/mL (≈ 2.61 µM) against S. aureus Smith; 0.031 µg/mL (≈ 0.083 µM) against N. catarrhalis 8193; 62.5 µg/mL (≈ 167 µM) against P. vulgaris 6896; 0.244 µg/mL (≈ 0.654 µM) in the data set on S. aureus 53-180; 62.5 µg/mL (≈ 167 µM) with S. paratyphi 11737; 0.122 µg/mL (≈ 0.327 µM) against K. pneumoniae 10031. This molecule gave an MIC against E. coli 9637 of 3.9 µg/mL (≈ 10.4 µM).
As to `Nc1nc(N)c2c(ccc3c2ccn3-c2ccc([N+](=O)[O-])cc2)n1` [Example 77], in data set [1], the ED100 was 640 mg/kg. Besides, the minimal effective dose in data set [1] amounted to 160 mg/kg. In addition, in data set [1], the “Cure/Treat at Min. Curing Dose” value was 5/5. Also, the “ΔMST (increase in mean survival time)” value in data set [1] (dose 40 mg. per kg.) stood at 28.3. In data set [2] (setting [4]), the MTD came to 640 mg/kg. The MIC is 3.9 µg/mL (≈ 12.2 µM) against S. aureus Smith; 0.031 µg/mL (≈ 0.0968 µM) against N. catarrhalis 8193; 250 µg/mL (≈ 780 µM) with P. vulgaris 6896; 3.9 µg/mL (≈ 12.2 µM) in the data set with S. aureus 53-180; 62.5 µg/mL (≈ 195 µM) with S. paratyphi 11737; 0.976 µg/mL (≈ 3.05 µM) against K. pneumoniae 10031. The same molecule gave a minimal inhibitory concentration (MIC) against E. coli 9637 of 7.81 µg/mL (≈ 24.4 µM).
As for `Cc1cc(-n2ccc3c4c(N)nc(N)nc4ccc32)ccc1[N+](=O)[O-]` [Example 80], the ED100 in [1] stood at 640 mg/kg. For the same molecule, the minimal effective dose in data set [1] is 640 mg/kg. For the same molecule, in data set [1], the “Cure/Treat at Min. Curing Dose” value is on record as 5/5. The “ΔMST (increase in mean survival time)” value in [1] (dose 160 mg. per kg.) was 13.9. The MTD in data set [2] (setting [4]) worked out at 640 mg/kg. The MIC is 62.5 µg/mL (≈ 187 µM) against S. aureus Smith; 0.0152 µg/mL (≈ 0.0455 µM) against N. catarrhalis 8193; over 250 µg/mL against P. vulgaris 6896; 7.81 µg/mL (≈ 23.4 µM) with S. aureus 53-180; over 250 µg/mL with S. paratyphi 11737; 0.976 µg/mL (≈ 2.92 µM) against K. pneumoniae 10031. This molecule also yielded an MIC with E. coli 9637 of over 250 µg/mL.
